Laboratory results as given in paper PMC6968383, “Design, synthesis, in vitro and in vivo evaluation of benzylpiperidine-linked 1,3-dimethylbenzimidazolinones as cholinesterase inhibitors against Alzheimer’s disease” (Journal of Enzyme Inhibition and Medicinal Chemistry, 2019).

What was measured:
[1] = system: scopolamine-induced cognition impairment in ICR mice; experiment: Morris water maze test, scopolamine-induced cognition impairment; type: in vivo; conditions: oral 15 mg kg−1, scopolamine 1 mg kg−1 ip, probe trial on sixth day, mean ± SEM n = 6
Procedure: The test included 5 days of learning and memory training and a probe trial on the sixth day.
Scopolamine hydrobromide was supplied by Aladdin Reagents (H1507073, Shanghai, China).
Cognitive function was evaluated by the Morris water maze analysis-management system (SMART 3.0, Panlab, Madrid, Spain), according to the method previously described[30].The maze was placed in a lit room with visual cues at 25 °C. An escape platform (10 cm diameter) was located in the centre of one quadrant of the circular pool (120 cm diameter, 60 cm height) with a depth of 40 cm water. The behavioural study of each mouse included 5 days of learning and memory training and a probe trial on day 6. The animal starting positions faced to the pool wall, and were pseudorandomised for each trial. For the cognitive evaluation, each mouse was individually evaluated on both visible-platform (days 1–2) and hidden-platform (days 3–5) versions of the water maze. All mice received nonspatial pretraining during the first two training days, which prepared them for the subsequent spatial learning test. During the two days, mice were trained to find the platform that was labelled by a small flag (5 cm tall). The hidden platform version was used to determine the retention of memory to find the platform. During the hidden-platform training trials, the escape platform was placed 1 cm below the surface of the water. On each day, the animal was subjected to two trials, each of which lasted for 90 s. The time for the mouse to find the platform (a successful escape) was recorded. […] On the last day (day 6), the platform was removed from its location and the animals were given a probe trial in which they had 90 s to search for the platform. The time taken to reach the missing platform and the number of times the animals crossed the platform location were recorded.
Data for the time of escape latency, the trajectory travelled, and the number of platform location crossings were recorded by SMART 3.0, Panlab, Madrid, Spain and processed by GraphPad Prism 6.0.

[2] = target: T1, Aβ1–42 (Homo sapiens, UniProt P05067); experiment: Inhibition of self-induced Aβ1–42 aggregation (thioflavin T); type: biochemical; conditions: under 50 µM, ThT fluorometric assay
T1 construct: self-induced Aβ1–42 aggregation; purchased Anaspec Inc. AS-64129–05
T1 sequence (P05067 672-713): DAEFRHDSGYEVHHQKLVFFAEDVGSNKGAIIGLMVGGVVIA
Procedure: Compounds 15b and 15j were evaluated for their inhibitory capacity on self-induced Aβ1–42 aggregation based on a thioflavin T-based fluorometric assay. […]
Corresponding Authors: clarissa0710@163.com (Y. Chen); sunhaopeng@163.com (H. P.
1.1. Inhibition of self-induced Aβ1–42 aggregation
Inhibitory effect of the compounds on self -induced Aβ1–42 aggregation was determined through a thioflavin T (ThT)-(T3516, Sigma-Aldrich) binding assay.
Firstly, aliquots of 2 μL of Aβ 1–42 (AS-64129–05 Anaspec Inc.) containing 2 mg/mL HFIP (1,1,1,3,3,3-hexafluoro-2-propanol, 52517 (Sigma-Aldrich) were stocked in DMSO).
Then, they were diluted with 0.215M sodium phosphate buffer (pH 8.0) to the final concentration of 500 μM. Test compounds were dissolved in DMSO and then prepared at a concentration of 50 μM by the buffer. Resveratrol was used as a positive control. […]
Fluorescence intensity was read (excitation wavelength 450 nm, emission wavelength 485 nm) on a microplate reader (Thermo, Varioskan Flas h 3001, USA).
The calculation of the inhibitory rate of Aβ 1–42 self-induced aggregation was performed using the following equation: (1 -IFi/IFc) × 100 %. IFi and IFc were the fluorescence intensities measured in the presence and absence of inhibitors, respe ctively, after subtracting the background fluorescence of the 5mM ThT solution. Each compound was measured in triplicate. […]

[3] = system: liver; experiment: Liver histopathological study (HE staining); conditions: 36 h after administration, compared to control group
Text: Figure 7. […] HE staining, original magnification ×200.

[4] = system: PC-12 cells; experiment: In vitro cell toxicity on PC-12 cell line (MTT); type: cell-based; conditions: 10, 20, 30 and 50 µM, 24 h
Text: We focussed on the cell toxicity of the synthesised compounds. Compounds 15b and 15j were selected as representative compounds for the evaluation of their potential cytotoxic effects.
Figure 4. (A) In vitro cell toxicity of 15b and 15j on PC-12 cell line. (B) In vitro hepatotoxicity of 15b and 15j on HepG2 cell line. Data were expressed as mean ± SD (n = 3).
PC12 cell and HepG2 cell (human hepatocellular liver carcinoma cell line purchased from Institute of Materia of Chinese Academy of Medical Science), were grown in DMEM supplemented with 10% FBS at 37 °C in a humidified atmosphere containing 5% CO2. For the experiments, cells (6 × 10^3 cells/well) were seeded in 96-well plate in complete medium. […]

[5] = target: T2, eqBChE (Equus caballus, UniProt P81908); experiment: Kinetic study of BChE inhibition (Lineweaver–Burk); type: biochemical; conditions: Lineweaver–Burk plot, 0, 0.5, 1, 2, 5 µM
T2 construct: horse serum BChE (eqBChE, Sigma-Aldrich); purchased Sigma-Aldrich; host or cells: horse serum
T2 sequence (P81908 whole entry): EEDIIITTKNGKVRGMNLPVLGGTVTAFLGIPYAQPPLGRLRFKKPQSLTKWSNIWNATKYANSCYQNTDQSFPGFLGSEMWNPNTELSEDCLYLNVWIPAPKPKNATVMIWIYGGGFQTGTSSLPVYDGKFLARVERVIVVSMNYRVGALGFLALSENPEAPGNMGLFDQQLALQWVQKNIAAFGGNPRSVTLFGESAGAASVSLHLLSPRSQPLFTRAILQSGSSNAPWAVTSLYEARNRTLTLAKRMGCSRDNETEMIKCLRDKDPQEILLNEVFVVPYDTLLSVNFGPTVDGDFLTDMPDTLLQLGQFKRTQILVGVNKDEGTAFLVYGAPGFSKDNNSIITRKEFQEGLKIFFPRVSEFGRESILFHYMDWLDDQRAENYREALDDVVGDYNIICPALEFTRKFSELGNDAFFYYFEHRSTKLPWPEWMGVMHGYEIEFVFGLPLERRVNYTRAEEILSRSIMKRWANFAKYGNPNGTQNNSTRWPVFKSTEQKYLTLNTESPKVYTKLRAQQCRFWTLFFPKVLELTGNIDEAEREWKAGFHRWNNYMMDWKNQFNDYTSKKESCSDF
Procedure: In each case, the kinetic type of enzyme inhibition was obtained through the modified Ellman’s method and Lineweaver–Burk secondary plots.
Figure 2. […] (B) Lineweaver–Burk plot for the inhibition of eqBChE by compound 15j at different concentrations of substrate.
[…]. The enzymatic reaction was extended to 7 min for eeAChE and eqBuChE before the determination of the absorption. Vmax and Km values of the Michaelis–Menten kinetics were calculated by nonlinear regression from substrate-velocity curves using GraphPad Prism 6.0. Linear regression was used for fitting the Lineweaver–Burk plots.

SMILES | Distance to target [1] | Latency to target [1] | inhibition of self-induced Aβ1–42 aggregation [2] | morphologic changes in liver [3] | cytotoxicity to PC-12 cells [4] | kinetic type of BChE inhibition [5]
Cc1ccccc1CN1CCC(CNS(=O)(=O)c2ccc3c(c2)n(C)c(=O)n3C)CC1 [Compound 15b, 1,3-dimethyl-N-((1–(2-methylbenzyl)piperidin-4-yl)methyl)-2-oxo-2,3-dihydro-1H-benzo[d]imidazole-5-sulphonamide] | 252.32 ± 8.42 cm | 9.29 ± 0.31 s | no inhibitory activities | did not result in remarkable morphologic changes in liver | no cytotoxicity | –
Cn1c(=O)n(C)c2cc(S(=O)(=O)NCC3CCN(Cc4cccc(Br)c4)CC3)ccc21 [Compound 15j, N-((1–(3-bromobenzyl)piperidin-4-yl)methyl)-1,3-dimethyl-2-oxo-2,3-dihydro-1H-benzo[d]imidazole-5-sulphonamide] | 350.27 ± 16.59 cm | 12.85 ± 0.72 s | no inhibitory activities | did not result in remarkable morphologic changes in liver | no cytotoxicity | competitive
